Measurements published in ChEMBL document CHEMBL2074408, “Altered pharmacokinetics of vinblastine in Mdr1a P-glycoprotein-deficient Mice” (J Natl Cancer Inst, 1996).

Target: ATP-dependent translocase ABCB1 (Mus musculus, UniProt P21447)
Assay: TP_TRANSPORTER: increase in brain concentration in mdr1a(-/-) mouse
Type: functional, organism-based
Settings: in vivo

ATP-dependent translocase ABCB1, sequence (P21447 whole entry): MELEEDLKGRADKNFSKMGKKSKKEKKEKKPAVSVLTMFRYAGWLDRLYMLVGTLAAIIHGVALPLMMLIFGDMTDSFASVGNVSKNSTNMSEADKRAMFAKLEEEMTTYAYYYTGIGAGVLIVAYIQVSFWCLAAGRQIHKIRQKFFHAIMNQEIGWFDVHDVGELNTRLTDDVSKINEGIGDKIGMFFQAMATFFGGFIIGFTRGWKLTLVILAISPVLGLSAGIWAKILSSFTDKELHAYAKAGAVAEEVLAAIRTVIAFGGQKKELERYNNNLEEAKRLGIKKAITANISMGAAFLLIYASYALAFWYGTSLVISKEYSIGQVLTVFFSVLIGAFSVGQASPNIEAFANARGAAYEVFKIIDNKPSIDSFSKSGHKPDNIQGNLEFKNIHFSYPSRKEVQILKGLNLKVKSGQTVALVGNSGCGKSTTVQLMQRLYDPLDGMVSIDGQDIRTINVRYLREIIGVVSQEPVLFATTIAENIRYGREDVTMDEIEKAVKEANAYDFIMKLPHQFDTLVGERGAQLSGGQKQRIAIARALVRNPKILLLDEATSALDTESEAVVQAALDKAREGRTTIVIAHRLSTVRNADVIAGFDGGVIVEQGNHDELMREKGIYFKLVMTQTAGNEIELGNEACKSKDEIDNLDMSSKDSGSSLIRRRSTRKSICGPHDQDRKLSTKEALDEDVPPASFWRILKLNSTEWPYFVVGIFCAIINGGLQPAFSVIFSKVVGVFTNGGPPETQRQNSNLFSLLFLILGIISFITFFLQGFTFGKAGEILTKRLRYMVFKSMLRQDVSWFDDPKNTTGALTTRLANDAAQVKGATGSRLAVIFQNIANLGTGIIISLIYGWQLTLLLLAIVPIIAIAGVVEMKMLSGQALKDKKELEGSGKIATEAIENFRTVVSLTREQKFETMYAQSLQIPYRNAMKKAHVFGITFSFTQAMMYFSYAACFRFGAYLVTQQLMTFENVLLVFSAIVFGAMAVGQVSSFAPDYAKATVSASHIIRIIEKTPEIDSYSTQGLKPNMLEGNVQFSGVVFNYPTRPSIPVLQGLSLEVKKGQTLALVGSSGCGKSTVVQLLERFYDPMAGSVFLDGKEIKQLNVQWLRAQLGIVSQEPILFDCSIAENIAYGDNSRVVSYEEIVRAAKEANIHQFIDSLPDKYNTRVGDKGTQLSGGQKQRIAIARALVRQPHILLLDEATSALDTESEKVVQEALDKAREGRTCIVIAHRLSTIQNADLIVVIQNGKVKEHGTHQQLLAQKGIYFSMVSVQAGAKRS

- Activity: substrate [+]
Compound: CC[C@]1(O)C[C@H]2CN(CCc3c([nH]c4ccccc34)[C@@](C(=O)OC)(c3cc4c(cc3OC)N(C=O)[C@H]3[C@@](O)(C(=O)OC)[C@H](OC(C)=O)[C@]5(CC)C=CCN6CC[C@]43[C@@H]65)C2)C1 [VINCRISTINE]
